# Experimental data taken from patent publication US10414740B2, “Glutaminase inhibitors and method of use” (Agios Pharmaceuticals, Inc., priority 2012, dated 2019).
# Target: T1, glutaminase (GAC) (Homo sapiens, UniProt O94925)
# T1 sequence (O94925 55-598 isoform O94925-3 limits assumed): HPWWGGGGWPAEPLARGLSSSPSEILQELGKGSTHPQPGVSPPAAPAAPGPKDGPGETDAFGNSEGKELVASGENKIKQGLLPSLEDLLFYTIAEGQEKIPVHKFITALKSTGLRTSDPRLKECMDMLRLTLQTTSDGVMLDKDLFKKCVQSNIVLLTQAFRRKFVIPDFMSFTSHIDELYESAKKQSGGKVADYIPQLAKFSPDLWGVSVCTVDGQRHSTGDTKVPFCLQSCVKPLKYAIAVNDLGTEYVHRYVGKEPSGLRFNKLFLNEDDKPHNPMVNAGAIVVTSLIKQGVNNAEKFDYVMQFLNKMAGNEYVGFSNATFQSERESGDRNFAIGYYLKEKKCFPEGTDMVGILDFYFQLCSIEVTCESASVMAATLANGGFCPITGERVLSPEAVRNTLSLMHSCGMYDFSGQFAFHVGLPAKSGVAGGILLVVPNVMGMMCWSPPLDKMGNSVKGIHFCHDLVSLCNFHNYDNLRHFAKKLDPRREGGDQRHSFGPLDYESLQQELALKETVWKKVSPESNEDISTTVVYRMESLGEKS
# Test: glutaminase coupled endpoint assay (Example A)
# Type: biochemical
# Details: inhibition of glutaminase; IC50 tested in an assay of Example A or Example B
# Experimental: In this example, the enzymatic activity of glutaminase is measured through a coupled endpoint assay. […] The glutamate produced is converted to 2-OG by a kinetic excess of glutamate dehydrogenase. […] However, a kinetic excess of the third coupling enzyme, diaphorase, recycles NAD from NADH to keep the NAD concentration constant during the timecourse of the assay. Diaphorase, also supplied in kinetic excess, oxidizes NADH produced by GDH back to NAD with the concomitant reduction of rezasurin to the highly fluorescent resorufin. […] A reduction in the signal indicates inhibition of some component of the coupled enzyme system. Prospective hits are counterscreened against GDH/diaphorase alone to remove hits to the coupling enzyme system in a second assay.
# 2. […] Add 1 μl a compound in 100% DMSO 2. Add 40 μl of Enzyme Mix and incubate for 60 minute at room temperature 3. Add 10 μl of Substrate Mix to start reaction 4.
row,IC50 [nM],SMILES
1,1000 to 10000,O=C(Cc1ccccc1)Nc1nnc(CC[S+]([O-])CCC(=O)Nc2nnc(Cc3ccccc3)s2)s1 (stereo not shown) [Compound 24]
2,1000 to 10000,"CN(C(=O)Nc1nnc(CCSCCc2nnc(NC(=O)N(C)c3ccccc3)s2)s1)c1ccccc1 [Compound 18, 1,1′-(5,5′-(thiobis(ethane-2,1-diyl))bis(1,3,4-thiadiazole-5,2-diyl))bis(3-methyl-3-phenylurea)]"
3,100 to 500,"O=C(Nc1nnc(CCCCc2nnc(NC(=O)c3cccc4ccccc34)s2)s1)c1cccc2ccccc12 [Compound 85, N,N′-(5,5′-(butane-1,4-diyl)bis(1,3,4-thiadiazole-5,2-diyl))di-1-naphthamide]"
4,500 to 1000,"O=C(Cc1ccc(Cl)nc1)Nc1nnc(CCCCc2nnc(NC(=O)Cc3ccc(Cl)nc3)s2)s1 [Compound 78, N,N′-(5,5′-(butane-1,4-diyl)bis(1,3,4-thiadiazole-5,2-diyl))bis(2-(6-chloropyridin-3-yl)acetamide)]"
5,< 100,"Cc1nc2ccc(C(=O)Nc3nnc(CCSCCc4nnc(NC(=O)c5ccc6nc(C)[nH]c6c5)s4)s3)cc2[nH]1 [Compound 34, N,N′-(5,5′-(2,2′-thiobis(ethane-2,1-diyl))bis(1,3,4-thiadiazole-5,2-diyl))bis(2-methyl-1H-benzo[d]imidazole-6-carboxamide)]"
6,500 to 1000,"O=C(CCc1cccnc1)Nc1nnc(CCCCc2nnc(NC(=O)CCc3cccnc3)s2)s1 [Compound 54, N,N′-(5,5′-(butane-1,4-diyl)bis(1,3,4-thiadiazole-5,2-diyl))bis(3-(pyridin-3-yl)propanamide)]"
7,1000 to 10000,CC(C)c1ccc(OCC(=O)Nc2nnc(CCCCc3nnc(NC(=O)COc4ccc(C(C)C)cc4)s3)s2)cc1 [Compound 79]
8,1000 to 10000,CNC(=O)c1nnc(CCSCCc2nnc(C(=O)NC)s2)s1 [Compound 77]
9,< 100,O=C(CCc1ccccc1O)Nc1nnc(CCCCc2nnc(NC(=O)CCc3ccccc3O)s2)s1 [Compound 45]
10,< 100,"COc1cccc(CCC(=O)Nc2nnc(CCCCc3nnc(NC(=O)CCc4cccc(OC)c4)s3)s2)c1 [Compound 53, N,N′-(5,5′-(butane-1,4-diyl)bis(1,3,4-thiadiazole-5,2-diyl))bis(3-(3-methoxyphenyl)propanamide)]"
11,1000 to 10000,O=C(Cc1ccccn1)Nc1nnc(CCC(O)CCc2nnc(NC(=O)Cc3ccccn3)s2)s1 [Compound 108]
12,< 100,O=C(Cc1ccccc1)Nc1nnc(CCSCc2nnc(NC(=O)Cc3ccccc3)s2)s1 [Compound 48]
13,< 100,"O=C(Cc1ccccc1)Nc1nnc(CCS(=O)(=O)CCc2nnc(NC(=O)Cc3ccccc3)s2)s1 [Compound 4, N,N′-(5,5′-(sulfonylbis(ethane-2,1-diyl))bis(1,3,4-thiadiazole-5,2-diyl))bis(2-phenylacetamide)]"
14,< 100,"COc1ccccc1CC(=O)Nc1nnc(CCCCc2nnc(NC(=O)Cc3ccccc3OC)s2)s1 [Compound 132, N,N′-(5,5′-(butane-1,4-diyl)bis(1,3,4-thiadiazole-5,2-diyl))bis(2-(2-methoxyphenyl)acetamide)]"
15,< 100,"NCCOc1ccc(CC(=O)Nc2nnc(CCS(=O)(=O)CCc3nnc(NC(=O)Cc4ccccc4)s3)s2)cc1 [Compound 29, 2-(4-(2-aminoethoxy)phenyl)-N-(5-(2-((2-(5-(2-phenylacetamido)-1,3,4-thiadiazol-2-yl)ethyl)sulfonyl)ethyl)-1,3,4-thiadiazol-2-yl)acetamide]"
16,100 to 500,O=C(Cc1ccccc1)Nc1nnc(CCS(=O)(=O)Cc2nnc(NC(=O)Cc3ccccc3)s2)s1 [Compound 56]
17,100 to 500,"CC(C)COC(=O)Nc1nnc(CCS(=O)(=O)CCc2nnc(NC(=O)OCC(C)C)s2)s1 [Compound 22, Diisobutyl (5,5′-(sulfonylbis(ethane-2,1-diyl))bis(1,3,4-thiadiazole-5,2-diyl))dicarbamate]"
18,100 to 500,"O=C(CC1OC(=O)c2ccccc21)Nc1nnc(CCCCc2nnc(NC(=O)CC3OC(=O)c4ccccc43)s2)s1 (stereo not shown) [Compound 93, N,N′-(5,5′-(butane-1,4-diyl)bis(1,3,4-thiadiazole-5,2-diyl))bis(2-(3-oxo-1,3-dihydroisobenzofuran-1-yl)acetamide)]"
19,100 to 500,"O=C(Cc1ccc(Cl)cc1)Nc1nnc(CCCCc2nnc(NC(=O)Cc3ccc(Cl)cc3)s2)s1 [Compound 113, N,N′-(5,5′-(butane-1,4-diyl)bis(1,3,4-thiadiazole-5,2-diyl))bis(2-(4-chlorophenyl)acetamide)]"

row,IC50 [nM],SMILES
1,100 to 500,"O=C(Cc1ccccn1)Nc1nnc(CCCCCc2nnc(NC(=O)Cc3ccccn3)s2)s1 [Compound 11, N,N′-(5,5′-(pentane-1,5-diyl)bis(1,3,4-thiadiazole-5,2-diyl))bis(2-(pyridin-2-yl)acetamide)]"
2,1000 to 10000,Cc1ccc(C)c(OCC(=O)Nc2nnc(CCCCc3nnc(NC(=O)COc4cc(C)ccc4C)s3)s2)c1 [Compound 67]
3,100 to 500,"O=C(CC1CCCCC1)Nc1nnc(CCCCc2nnc(NC(=O)CC3CCCCC3)s2)s1 [Compound 121, N,N′-(5,5′-(butane-1,4-diyl)bis(1,3,4-thiadiazole-5,2-diyl))bis(2-cyclohexylacetamide)]"
4,100 to 500,"O=C(Nc1nnc(CCCCc2nnc(NC(=O)C3CCCCC3)s2)s1)C1CCCCC1 [Compound 90, N,N′-(5,5′-(butane-1,4-diyl)bis(1,3,4-thiadiazole-5,2-diyl))dicyclohexanecarboxamide]"
5,100 to 500,"COc1ccc(CCCC(=O)Nc2nnc(CCCCc3nnc(NC(=O)CCCc4ccc(OC)cc4)s3)s2)cc1 [Compound 75, N,N′-(5,5′-(butane-1,4-diyl)bis(1,3,4-thiadiazole-5,2-diyl))bis(4-(4-methoxyphenyl)butanamide)]"
6,100 to 500,"O=C(Cc1ccc(O)cc1)Nc1nnc(CCCCc2nnc(NC(=O)Cc3ccc(O)cc3)s2)s1 [Compound 38, N,N′-(5,5′-(butane-1,4-diyl)bis(1,3,4-thiadiazole-5,2-diyl))bis(2-(4-hydroxyphenyl)acetamide)]"
7,< 100,"O=C(Cc1c[nH]c2ccncc12)Nc1nnc(CCCCc2nnc(NC(=O)Cc3c[nH]c4ccncc34)s2)s1 [Compound 124, N,N′-(5,5′-(butane-1,4-diyl)bis(1,3,4-thiadiazole-5,2-diyl))bis(2-(1H-pyrrolo[3,2-c]pyridin-3-yl)acetamide)]"
8,< 100,O=C(Cc1ccccn1)Nc1nnc(CCSCc2nnc(NC(=O)Cc3ccccn3)s2)s1 [Compound 57]
9,100 to 500,"CCOC(=O)CCC(=O)Nc1nnc(CCCCc2nnc(NC(=O)CCC(=O)OCC)s2)s1 [Compound 66, Diethyl 4,4′-(5,5′-(butane-1,4-diyl)bis(1,3,4-thiadiazole-5,2-diyl))bis(azanediyl)bis(4-oxobutanoate)]"
10,< 100,"O=C(CCc1ccccc1)Nc1nnc(CCS(=O)(=O)CCc2nnc(NC(=O)CCc3ccccc3)s2)s1 [Compound 21, N,N′-(5,5′-(2,2′-sulfonylbis(ethane-2,1-diyl))bis(1,3,4-thiadiazole-5,2-diyl))bis(3-phenylpropanamide)]"
11,< 100,"CC(=O)Nc1nnc(CCCCc2nnc(NC(=O)c3ccc4[nH]c(C)nc4c3)s2)s1 [Compound 128, N-(5-(4-(5-acetamido-1,3,4-thiadiazol-2-yl)butyl)-1,3,4-thiadiazol-2-yl)-2-methyl-1H-benzo[d]imidazole-5-carboxamide]"
12,1000 to 10000,CC(CC(=O)Nc1nnc(CCCCc2nnc(NC(=O)CC(C)c3ccccc3)s2)s1)c1ccccc1 (stereo not shown) [Compound 110]
13,< 100,"O=C(Cc1n[nH]c2ccccc12)Nc1nnc(CCCCc2nnc(NC(=O)Cc3n[nH]c4ccccc34)s2)s1 [Compound 126, N,N′-(5,5′-(butane-1,4-diyl)bis(1,3,4-thiadiazole-5,2-diyl))bis(2-(1H-indazol-3-yl)acetamide)]"
14,1000 to 10000,CC(=O)Oc1cccc(C(=O)Nc2nnc(CCCCc3nnc(NC(=O)c4cccc(OC(C)=O)c4C)s3)s2)c1C [Compound 58]
15,1000 to 10000,CC(=O)NCCC(=O)Nc1nnc(CCCCc2nnc(NC(=O)CCNC(C)=O)s2)s1 [Compound 68]
16,1000 to 10000,"O=C(Cc1ccccn1)Nc1nnc(CCCCCCc2nnc(NC(=O)Cc3ccccn3)s2)s1 [Compound 16, N,N′-(5,5′-(hexane-1,6-diyl)bis(1,3,4-thiadiazole-5,2-diyl))bis(2-(pyridin-2-yl)acetamide)]"
17,500 to 1000,"O=C(CCCC1CCCCC1)Nc1nnc(CCCCc2nnc(NC(=O)CCCC3CCCCC3)s2)s1 [Compound 80, N,N′-(5,5′-(butane-1,4-diyl)bis(1,3,4-thiadiazole-5,2-diyl))bis(4-cyclohexylbutanamide)]"
18,1000 to 10000,CC(C)(Oc1ccc(Cl)cc1)C(=O)Nc1nnc(CCCCc2nnc(NC(=O)C(C)(C)Oc3ccc(Cl)cc3)s2)s1 [Compound 109]
